Counter-ions that a name gives are not always drawn.

The target of the first assay is Full length SHP2 protein (Recombinant Human SHP-2) (Homo sapiens (Human), UniProt Q06124). Description: SHP2 biochemical assay (DiFMUP substrate, activating peptide IRSI_2pY). As to conditions: SHP-2 biochemical assay IC50 (μM), activating peptide IRSI_2pY 140 nM, DiFMUP, 60 min.
Sequence of Full length SHP2 protein (Recombinant Human SHP-2) (Q06124 2-593): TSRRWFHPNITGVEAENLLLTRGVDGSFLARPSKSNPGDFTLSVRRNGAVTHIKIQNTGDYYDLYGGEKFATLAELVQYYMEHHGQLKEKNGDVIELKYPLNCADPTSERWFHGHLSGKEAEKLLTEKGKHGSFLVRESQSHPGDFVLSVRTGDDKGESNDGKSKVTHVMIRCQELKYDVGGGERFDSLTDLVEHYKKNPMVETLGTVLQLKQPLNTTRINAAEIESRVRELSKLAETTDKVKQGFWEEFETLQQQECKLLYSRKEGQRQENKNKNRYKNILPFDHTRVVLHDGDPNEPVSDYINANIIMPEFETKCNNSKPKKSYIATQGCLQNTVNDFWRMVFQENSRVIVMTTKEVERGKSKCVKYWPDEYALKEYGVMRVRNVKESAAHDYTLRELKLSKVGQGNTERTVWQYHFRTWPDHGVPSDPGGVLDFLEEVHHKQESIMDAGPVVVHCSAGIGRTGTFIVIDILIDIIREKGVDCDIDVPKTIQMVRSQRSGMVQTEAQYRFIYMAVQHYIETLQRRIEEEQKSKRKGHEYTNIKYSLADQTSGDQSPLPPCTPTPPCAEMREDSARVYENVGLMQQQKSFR
Protocol: The inhibition of SHP2 by compounds of the invention was monitored using the surrogate substrate DiFMUP after protein activation by a peptide bearing two appropriately spaced phosphotyrosine. […] The generation of the DiFMU product by activated SHP2 was monitored through Fluorescence measurement with a PerkinElmer Envision reader. The inhibitor dose response curves were analyzed with Genedata Screener.
The term IC50 denotes the midpoint of a concentration-inhibition curve. Take `Cc1c(N2C[C@H]3COC[C@@]3(CN)C2)nc(C)n(-c2cccc(Cl)c2Cl)c1=O` (racemic) [Compound 34, (+/−)-6-[(3aS,6aS)-3a-(aminomethyl)-hexahydro-1H-furo[3,4-c]pyrrol-5-yl]-3-(2,3-dichlorophenyl)-2,5-dimethyl-3,4-dihydropyrimidin-4-one]: the IC50 was determined as 1.7 µM.
The same measure, in the same setting: the value for `Cc1nc(N(C)[C@H]2CC[C@](C)(N)CC2)cc(=O)n1-c1cccc(Cl)c1Cl` (single isomer, unassigned) [Compound 71a, 3-(2,3-dichlorophenyl)-2-methyl-6-{methyl[(trans)-4-amino-4-methylcyclohexyl]amino}-3,4-dihydropyrimidin-4-one] was above 50 µM.
On to `Cc1nc(N2C[C@@H]3CCC[C@]3(CN)C2)c(C(F)(F)F)c(=O)n1-c1cccc(Cl)c1Cl` (racemic) [Compound 25, (+/−)-6-[(3aS,6aR)-3a-(aminomethyl)-octahydrocyclopenta[c]pyrrol-2-yl]-3-(2,3-dichlorophenyl)-2-methyl-5-(trifluoromethyl)-3,4-dihydropyrimidin-4-one], for which the IC50 came to 14 µM.
With `COc1c(N2CCC3(CC2)CO[C@@H](C)[C@H]3N)nc(C)n(-c2cccc(Cl)c2Cl)c1=O` (single isomer, unassigned) [Compound 73b], the IC50 was 0.91 µM.
The same measure, in the same setting: the value for `Cc1nc(N2CCC3(CC2)CO[C@@H](C)[C@H]3N)nc(=O)n1-c1cccc(Cl)c1Cl` (single isomer, unassigned) [Compound 37b] was above 10 µM; that for `Cc1c(N2CCC3(CC2)Oc2ccccc2[C@H]3N)nc(C)n(-c2cccc(Cl)c2Cl)c1=O` (single isomer, unassigned) [Compound 81a] was 0.47 µM; that for `Cc1c(N[C@H]2CC[C@@H](N)CC2)ncn(-c2cccc(Cl)c2Cl)c1=O` [Compound 85, 6-(4-Amino-cyclohexylamino)-3-(2,3-dichloro-phenyl)-5-methyl-3H-pyrimidin-4-one] was above 10 µM.
Same read-out and setting: the value for `Cc1nc(N2CC[C@@H](N)[C@@H](O)C2)cc(=O)n1-c1cccc(Cl)c1Cl` (racemic) [Compound 30, (+/−)-6-[(3S,4R)-4-amino-3-hydroxypiperidin-1-yl]-3-(2,3-dichlorophenyl)-2-methyl-3,4-dihydropyrimidin-4-one] was 13 µM; that for `Cc1nc(N2CCC(C)([C@H](O)CN)CC2)cc(=O)n1-c1cccc(Cl)c1Cl` (racemic) [Compound 57b, (+/−)-(3P)-6-{4-[(1S)-2-amino-1-hydroxyethyl]-4-methylpiperidin-1-yl}-3-(2,3-dichlorophenyl)-2-methyl-3,4-dihydropyrimidin-4-one] was 3 µM.

Still in this assay, the particulars now being: activating peptide IRSI_2pY 140 nM, DiFMUP, 60 min; read-out: SHP-2 biochemical assay IC50.
As for `Cc1c(N2CCC3(CC2)Oc2cnccc2C3N)nc(C)n(-c2cccc(Cl)c2Cl)c1=O` (single isomer, unassigned) [Compound 80c], the IC50 came out at 0.005 µM.
On the same count and under the same terms, the figure for `Cc1nc(N2CCC(N)(C(N)=O)CC2)cc(=O)n1-c1cccc(Cl)c1Cl` [Compound 22, 4-amino-1-[1-(2,3-dichlorophenyl)-2-methyl-6-oxo-1,6-dihydropyrimidin-4-yl]piperidine-4-carboxamide] is 2.1 µM.
On the same count and under the same terms, the value for `CSc1nc(N2CCC(C)(N)CC2)cc(=O)n1-c1cccc(Cl)c1Cl` [Compound 1, 6-(4-amino-4-methylpiperidin-1-yl)-3-(2,3-dichlorophenyl)-2-(methylsulfanyl)-3,4-dihydropyrimidin-4-one] was 8.6 µM.
Same read-out and setting: the value for `Cc1c(N2CCC3(CC2)CO[C@@H](C)[C@H]3N)nc(C)n(-c2ccc3ccccc3c2Cl)c1=O` [Compound 52, 6-((3S,4S)-4-Amino-3-methyl-2-oxa-8-aza-spiro[4.5]dec-8-yl)-3-(1-chloro-naphthalen-2-yl)-2,5-dimethyl-3H-pyrimidin-4-one] was 0.59 µM.
As to `Cc1nc(N2CC3CC4CC(C4(C)C)C3(CN)C2)cc(=O)n1-c1cccc(Cl)c1Cl` (centres unmarked) [Compound 60, 6-[2-(aminomethyl)-9,9-dimethyl-4-azatricyclo[6.1.1.0^2,6]decan-4-yl]-3-(2,3-dichlorophenyl)-2-methyl-3,4-dihydropyrimidin-4-one], the 50% inhibitory concentration (IC50) was 10 µM.
On the same count and under the same terms, the figure for `Cc1c(N2CCCC(CN)CC2)nc(C)n(-c2cccc(Cl)c2Cl)c1=O` (centres unmarked) [Compound 91, 6-[4-(aminomethyl)azepan-1-yl]-3-(2,3-dichlorophenyl)-2,5-dimethyl-3,4-dihydropyrimidin-4-one] is 2 µM; for `Cc1c(N2CCC(C)(CN)CC2)nc(C)n(-c2ccc3ccccc3c2)c1=O` [Compound 44, 6-(4-Aminomethyl-4-rnethyl-piperidin-1-yl)-2,5-dimethyl-3-naphthalen-2-yl-3H-pyrimidin-4-one] it is 18 µM; for `Cc1c(N2CCN3CC(N)CC3C2)nc(C)n(-c2cccc(Cl)c2Cl)c1=O` (centres unmarked) [Compound 100, (3M)-6-7-amino-octahydropyrrolo[1,2-a]pyrazin-2-yl-3-(2,3-dichlorophenyl)-2,5-dimethyl-3,4-dihydropyrimidin-4-one] it is 5.8 µM.
Consider `COc1c(N2CCC3(CC2)CO[C@@H](C)[C@H]3N)nc(C)n(-c2cccc(Cl)c2Cl)c1=O` (single isomer, unassigned) [Compound 73a], for which the IC50 is above 10 µM.
For the compound `Cc1c(N2CCC3(CCC[C@H]3N)CC2)nc(N)n(-c2cccc(Cl)c2Cl)c1=O` (single isomer, unassigned) [Compound 78b], the IC50 was above 10 µM.
Take `Cc1nc(N2CCC(NC[C@@H](O)CO)CC2)cc(=O)n1-c1cccc(Cl)c1Cl` [Compound 41, 3-(2,3-dichlorophenyl)-6-(4-{[(2R)-2,3-dihydroxypropyl]-amino}piperidin-1-yl)-2-methyl-3,4-dihydropyrimidin-4-one]: the IC50 came to 2.5 µM.
Take `Cc1c(N2CCC(C)(N)CC2)nc(C)n(-c2ccc3ccccc3c2)c1=O` [Compound 39, 6-(4-Amino-4-methyl-piperidin-1-yl)-2,5-dimethyl-3-naphthalen-2-yl-3H-pyrimidin-4-one]: the IC50 is above 10 µM.
Regarding `Cc1nc(N2CCC(C)(NCC3CCC(O)CC3)CC2)cc(=O)n1-c1cccc(Cl)c1Cl` (centres unmarked) [Compound 50, 3-(2,3-dichlorophenyl)-6-(4-{[(4-hydroxycyclohexyl)methyl]amino}-4-methylpiperidin-1-yl)-2-methyl-3,4-dihydropyrimidin-4-one], the IC50 came out at 0.56 µM.
For the compound `Cc1c(N2CCC(C)(N)CC2)nc(C)n(-c2ccc3ccccc3c2Cl)c1=O` [Compound 48, 6-(4-Amino-4-methyl-piperidin-1-yl)-3-(1-chloro-naphthalen-2-yl)-2,5-dimethyl-3H-pyrimidin-4-one], the half-maximal inhibitory concentration (IC50) was 18 µM.
Turning to `Cc1c(N2CC(CN)C(C)(C)C2)nc(C)n(-c2cccc(Cl)c2Cl)c1=O` (centres unmarked) [Compound 87, 6-[4-(aminomethyl)-3,3-dimethylpyrrolidin-1-yl]-3-(2,3-dichlorophenyl)-2,5-dimeihyl-3,4-dihydropyrimidin-4-one], the IC50 was determined as 7.9 µM.
On to `Cc1nc(N2CCC3(CC2)CO[C@@H](C)[C@H]3N)c(CCO)c(=O)n1-c1cccc(Cl)c1Cl` [Compound 76, 6-[(3S,4S)-4-amino-3-methyl-2-oxa-8-azaspiro[4.5]decan-8-yl]-3-(2,3-dichlorophenyl)-5-(2-hydroxyethyl)-2-methyl-3,4-dihydropyrimidin-4-one Hydrochloride], for which the IC50 turned out to be 7 µM.
With `COc1ccc(-n2c(C)nc(N3CCC4(CC3)CO[C@@H](C)[C@H]4N)c(C)c2=O)c(Cl)c1Cl` [Compound 98, 6-((3S,4S)-4-Amino-3-methyl-2-oxa-8-aza-spiro[4.5]dec-8-yl)-3-(2,3-dichloro-4-methoxy-phenyl)-2,5-dimethyl-3H-pyrimidin-4-one], the IC50 is 0.5 µM.
Turning to `Cc1c(N2CCCC(N)(CC(C)O)CC2)nc(C)n(-c2cccc(Cl)c2Cl)c1=O` (centres unmarked) [Compound 115, (3M)-6-[4-amino-4-(2-hydroxypropyl)azepan-1-yl]-3-(2,3-dichlorophenyl)-2,5-dimethyl-3,4-dihydropyrimidin-4-one], the IC50 was 3.8 µM.
On the same count and under the same terms, the value for `Cc1nc(N2CCC3(CC2)Cc2ccccc2[C@H]3N)cc(=O)n1-c1cccc(Cl)c1Cl` (single isomer, unassigned) [Compound 119a] was 0.27 µM; that for `Cc1c(N2CCC(C)(N)CC2)nc(C)n(-c2ccc3nccnc3c2)c1=O` [Compound 47, 6-(4-Amino-4-methyl-piperidin-1-yl)-2,5-dimethyl-3-quinoxalin-6-yl-3H-pyrimidin-4-one] was above 10 µM; that for `Cc1nc(N2CCC3(CC2)CO[C@@H](C)[C@H]3N)c(C(C)C)c(=O)n1-c1cccc(Cl)c1Cl` (atropisomer, axis not shown) [Compound 49a, (3P)-6-[(3S,4S)-4-amino-3-methyl-2-oxa-8-azaspiro[4.5]decan-8-yl]-3-(2,3-dichlorophenyl)-2-methyl-5-(propan-2-yl)-3,4-dihydropyrimidin-4-one] was above 10 µM.
On the same count and under the same terms, the figure for `Cc1nc(N2CCC3(CC2)CO[C@@H](C)[C@H]3N)cc(=O)n1-c1c(F)ccc(Cl)c1Cl` (single isomer, unassigned) [Compound 32a] is above 10 µM.
For the compound `Nc1nc(N2CCC3(CC2)CC(F)(F)C[C@H]3N)cc(=O)n1-c1cccc(Cl)c1Cl` [Compound 8, 2-amino-6-[(1R)-1-amino-3,3-difluoro-8-azaspiro[4.5]decan-8-yl]-3-(2,3-dichlorophenyl)-3,4-dihydropyrimidin-4-one], the 50% inhibitory concentration (IC50) was 1.1 µM.
The same measure, in the same setting: the figure for `Cc1c(N2CCCC(C)(CN)CC2)nc(C)n(-c2cccc(Cl)c2Cl)c1=O` (centres unmarked) [Compound 107, (3M)-6-[4-(aminomethyl)-4-methylazepan-1-yl]-3-(2,3-dichlorophenyl)-2,5-dimethyl-3,4-dihydropyrimidin-4-one] is 1.2 µM; for `Cc1c(N2CCc3cccc(N)c3C2)nc(C)n(-c2cccc(Cl)c2Cl)c1=O` [Compound 51, 6-(8-amino-1,2,3,4-tetrahydroisoquinolin-2-yl)-3-(2,3-dichlorophenyl)-2,5-dimethyl-3,4-dihydropyrimidin-4-one] it is above 10 µM.
The same measure, in the same setting: the figure for `Cc1c(N2CCC(C)(N)CC2)ncn(-c2cccc(Cl)c2Cl)c1=O` [Compound 70, 6-(4-Amino-4-methyl-piperidin-1-yl)-3-(2,3-dichloro-phenyl)-5-methyl-3H-pyrimidin-4-one] is above 10 µM.

The values are drawn from patent US11001561B2, “Pyrimidinone derivatives as SHP2 antagonists” (MERCK PATENT GMBH, priority 2019, dated 2021).
